From patent EP0462066A1, “Amorphous gemfibrozil” (WARNER-LAMBERT COMPANY, priority 1990, dated 1991)
≈ marks a conversion by molar mass, not a printed value.

Test: Dissolution / solubility in water over time, crystalline material compared with solid dispersion
Format: physicochemical

solubility at 1 h (Time: One hour): 14.7 µg/mL (≈ 58.8 µM)
solubility at 20 h (Time: Twenty Hours): 21.3 µg/mL (≈ 85.1 µM)
solubility at 24 h (Time: Twenty-four Hours): 22.4 µg/mL (≈ 89.5 µM)
solubility at 2 h (Time: Two Hours): 18.4 µg/mL (≈ 73.6 µM)
Compound: Cc1ccc(C)c(OCCCC(C)(C)C(=O)O)c1 [Crystalline, 5-(2,5-dimethylphenoxy)-2,2-dimethylpentanoic acid]
